Measurements as given in ChEMBL document CHEMBL1135297, “Enantioselective synthesis of S-(+)-2beta-carboalkoxy-3alpha-[bis(4-fluorophenyl)methoxy]tropanes as novel probes for the dopamine transporter” (Bioorg Med Chem Lett, 2002).

Experiments:
[1] = target: Sodium-dependent dopamine transporter (Rattus norvegicus, UniProt P23977); assay: Ability to displace [3H]WIN-35 radioligand for the dopamine transporter 428 DAT in rat brain; assay type: tissue-based
[2] = target: T1, Muscarinic acetylcholine receptor M1 (Rattus norvegicus, UniProt P08482); assay: Ability to displace [3H]pirenzepine radioligand for the Muscarinic acetylcholine receptor M1 in rat brain; assay type: tissue-based
T1 sequence (P08482 whole entry): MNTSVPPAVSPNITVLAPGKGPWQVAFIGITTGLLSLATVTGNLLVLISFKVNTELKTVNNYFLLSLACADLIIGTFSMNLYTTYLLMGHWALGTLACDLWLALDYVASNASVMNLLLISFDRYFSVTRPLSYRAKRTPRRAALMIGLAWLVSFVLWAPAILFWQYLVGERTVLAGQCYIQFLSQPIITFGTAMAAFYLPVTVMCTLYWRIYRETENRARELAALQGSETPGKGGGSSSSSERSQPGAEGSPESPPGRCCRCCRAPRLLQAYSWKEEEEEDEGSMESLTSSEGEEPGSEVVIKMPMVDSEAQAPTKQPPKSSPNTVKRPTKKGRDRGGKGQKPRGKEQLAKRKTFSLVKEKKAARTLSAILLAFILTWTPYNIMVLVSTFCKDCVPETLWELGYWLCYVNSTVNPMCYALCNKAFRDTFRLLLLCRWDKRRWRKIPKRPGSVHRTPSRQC

[3] = target: Norepinephrine transporter (Rattus norvegicus, UniProt Q9WTR4); assay: Ability to displace [3H]-nisoxatine radioligand for the Norepinephrine transporter in rat brain; assay type: tissue-based
Norepinephrine transporter, sequence (Q9WTR4 whole entry): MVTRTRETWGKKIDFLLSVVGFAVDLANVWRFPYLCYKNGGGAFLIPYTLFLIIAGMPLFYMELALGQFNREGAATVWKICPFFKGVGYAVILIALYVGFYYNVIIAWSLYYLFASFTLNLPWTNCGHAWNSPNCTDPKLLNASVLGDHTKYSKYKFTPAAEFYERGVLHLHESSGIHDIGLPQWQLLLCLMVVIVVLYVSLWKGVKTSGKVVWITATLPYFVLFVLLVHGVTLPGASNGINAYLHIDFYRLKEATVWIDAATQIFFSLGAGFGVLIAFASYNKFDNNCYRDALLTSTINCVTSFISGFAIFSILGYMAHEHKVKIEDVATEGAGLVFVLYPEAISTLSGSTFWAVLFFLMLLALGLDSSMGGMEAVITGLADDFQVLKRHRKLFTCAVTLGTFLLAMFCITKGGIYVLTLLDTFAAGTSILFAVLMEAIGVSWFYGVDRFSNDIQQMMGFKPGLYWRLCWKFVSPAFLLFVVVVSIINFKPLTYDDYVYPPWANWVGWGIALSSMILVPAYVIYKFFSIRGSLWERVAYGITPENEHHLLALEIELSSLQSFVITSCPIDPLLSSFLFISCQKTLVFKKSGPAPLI

[4] = species: Rattus norvegicus; assay: Inhibition of [3H]DA uptake in rat synaptosomes; assay type: functional, Brain
[5] = target: Sodium-dependent serotonin transporter (Rattus norvegicus, UniProt P31652); assay: Ability to displace [3H]citalopram radioligand, for the Serotonin transporter in rat brain; assay type: tissue-based
Sodium-dependent serotonin transporter, sequence (P31652 whole entry): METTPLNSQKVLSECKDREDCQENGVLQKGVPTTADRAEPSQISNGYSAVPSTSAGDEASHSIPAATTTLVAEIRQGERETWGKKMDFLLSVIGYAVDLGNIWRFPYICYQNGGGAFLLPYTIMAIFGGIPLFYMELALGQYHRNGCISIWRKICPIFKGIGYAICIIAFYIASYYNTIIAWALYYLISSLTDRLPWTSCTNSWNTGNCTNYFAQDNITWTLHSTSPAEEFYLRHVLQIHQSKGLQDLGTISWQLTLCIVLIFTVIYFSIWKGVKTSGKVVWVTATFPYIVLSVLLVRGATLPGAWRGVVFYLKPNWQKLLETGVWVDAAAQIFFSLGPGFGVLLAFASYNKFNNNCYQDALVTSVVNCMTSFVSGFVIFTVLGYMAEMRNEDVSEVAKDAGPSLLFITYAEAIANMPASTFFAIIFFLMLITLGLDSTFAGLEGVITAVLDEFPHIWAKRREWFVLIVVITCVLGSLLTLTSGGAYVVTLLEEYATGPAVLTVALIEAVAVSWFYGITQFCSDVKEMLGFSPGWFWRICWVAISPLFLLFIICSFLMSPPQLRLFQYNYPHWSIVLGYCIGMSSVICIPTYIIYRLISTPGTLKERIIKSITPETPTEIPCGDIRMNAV

Sodium-dependent dopamine transporter, sequence (P23977 whole entry): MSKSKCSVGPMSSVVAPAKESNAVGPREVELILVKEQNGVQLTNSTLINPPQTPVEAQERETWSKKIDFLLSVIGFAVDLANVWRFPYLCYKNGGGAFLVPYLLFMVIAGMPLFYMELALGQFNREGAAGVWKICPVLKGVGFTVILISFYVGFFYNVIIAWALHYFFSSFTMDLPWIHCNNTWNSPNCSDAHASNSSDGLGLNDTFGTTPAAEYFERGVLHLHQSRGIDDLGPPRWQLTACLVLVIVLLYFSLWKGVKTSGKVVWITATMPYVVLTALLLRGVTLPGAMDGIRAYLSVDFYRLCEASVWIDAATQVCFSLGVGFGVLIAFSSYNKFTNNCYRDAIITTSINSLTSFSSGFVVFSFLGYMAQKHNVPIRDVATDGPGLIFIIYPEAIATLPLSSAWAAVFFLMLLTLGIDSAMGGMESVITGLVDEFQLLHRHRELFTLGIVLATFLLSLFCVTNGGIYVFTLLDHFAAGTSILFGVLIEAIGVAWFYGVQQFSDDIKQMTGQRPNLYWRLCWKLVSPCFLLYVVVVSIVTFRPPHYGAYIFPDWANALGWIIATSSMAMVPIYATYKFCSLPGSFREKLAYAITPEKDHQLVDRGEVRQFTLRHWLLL

**Q.** `CC(C)OC(=O)C1C(OC(c2ccc(F)cc2)c2ccc(F)cc2)CC2CCC1N2C` (single isomer, unassigned; (+)) was tested. Which Ki [1] did it give?
**A.** 23.3 nM

**Q.** What about the Ki [2] of the same compound?
**A.** 2680 nM

**Q.** And the Ki [3]?
**A.** 642 nM

**Q.** And the IC50 ([4]; Rattus norvegicus, Brain)?
**A.** 6.2 nM

**Q.** What about the Ki [5] of the same compound?
**A.** 12000 nM

**Q.** How did the Ki [3] turn out when `CN1C2CCC1CC(OC(c1ccc(F)cc1)c1ccc(F)cc1)C2` (stereo unspecified) [DIFLUOROBENZTROPINE] was run?
**A.** 610 nM

**Q.** And the Ki [5]?
**A.** 3260 nM

**Q.** `COC(=O)C1C(OC(c2ccc(F)cc2)c2ccc(F)cc2)CC2CCC1N2C` (racemic) was tested. Which Ki [1] did it give?
**A.** 21.3 nM

**Q.** What about the Ki [2] of the same compound?
**A.** 302 nM

**Q.** And the Ki [3]?
**A.** 474 nM

**Q.** What about the IC50 [4] of the same compound?
**A.** 2.9 nM

**Q.** What about the Ki [5] of the same compound?
**A.** 1750 nM

**Q.** How did the Ki [1] turn out when `CC(C)OC(=O)C1C(OC(c2ccc(F)cc2)c2ccc(F)cc2)CC2CCC1N2C` (racemic) was run?
**A.** 49.1 nM

**Q.** What about the Ki [2] of the same compound?
**A.** 7640 nM

**Q.** What about the Ki [3] of the same compound?
**A.** 1990 nM

**Q.** And the IC50 [4]?
**A.** 6.8 nM

**Q.** What about the Ki [5] of the same compound?
**A.** 13800 nM

**Q.** What does the source list for `CN1C2CCC1C(C(=O)OCc1ccccc1)C(OC(c1ccc(F)cc1)c1ccc(F)cc1)C2` (racemic)?
**A.** Ki [1]: 90.3 nM; Ki [2]: 5100 nM; Ki [3]: 4110 nM; IC50 [4]: 3.5 nM; Ki [5]: 3320 nM

**Q.** How did the Ki [1] turn out when `CN1C2CCC1C(C(=O)OCc1ccccc1)C(OC(c1ccc(F)cc1)c1ccc(F)cc1)C2` (stereo unspecified) was run?
**A.** 40.2 nM

**Q.** What about the Ki [2] of the same compound?
**A.** 4380 nM

**Q.** What about the Ki [3] of the same compound?
**A.** 2230 nM

**Q.** And the IC50 ([4]; Rattus norvegicus, Brain)?
**A.** 2.2 nM

**Q.** What about the Ki [5] of the same compound?
**A.** 2040 nM

**Q.** What does the source list for `CCOC(=O)C1C(OC(c2ccc(F)cc2)c2ccc(F)cc2)CC2CCC1N2C` (single isomer, unassigned; (+))?
**A.** Ki [1]: 16.8 nM; Ki [2]: 1890 nM; Ki [3]: 629 nM; Ki [5]: 1850 nM

**Q.** How did the Ki [1] turn out when `CCOC(=O)C1C(OC(c2ccc(F)cc2)c2ccc(F)cc2)CC2CCC1N2C` (racemic) was run?
**A.** 26.2 nM

**Q.** And the Ki [2]?
**A.** 1860 nM

**Q.** And the Ki [3]?
**A.** 1020 nM

**Q.** And the IC50 ([4]; Rattus norvegicus, Brain)?
**A.** 3.6 nM

**Q.** What about the Ki [5] of the same compound?
**A.** 3740 nM

**Q.** How did the Ki [1] turn out when `COC(=O)C1C(OC(c2ccc(F)cc2)c2ccc(F)cc2)CC2CCC1N2C` (single isomer, unassigned; (+)) was run?
**A.** 12.9 nM

**Q.** What about the Ki [2] of the same compound?
**A.** 133 nM

**Q.** What about the Ki [3] of the same compound?
**A.** 269 nM

**Q.** And the IC50 ([4]; Rattus norvegicus, Brain)?
**A.** 1.5 nM

**Q.** What about the Ki [5] of the same compound?
**A.** 690 nM
